Test results: patent EP0450461B1, “LHRH Analogs” (The Administrators of The Tulane Educational Fund, priority 1990, dated 1991)
Marks after values point to notes of the source that are not given here.

Experiments:
[1] = test system: human mammary cell line MDA-MB-231; conditions: 10µg dose; cited from earlier work
[2] = test system: membrane receptors of human breast cancer cells; assay: Receptor binding affinity for human breast cancer cell membranes, labelled [D-Trp6]LHRH as ligand
Procedure: Affinity for peptides to human breast cancer cell membranes is determined by using labelled LHRH and [D-Trp⁶]LHRH. The assay is carried out similarly to that described by T. Kadar et al., Proc. Natl. Acad. Sci. USA, 85, 890-894 (1988) and M. Fekete et al., Endocrinology, 124, 946-955 (1989).
(§1) Table 2 presents the antiovulatory activity and human breast cancer cell membrane receptor binding affinity of the claimed compounds having LHRH-inhibiting properties. The inhibitory action was determined in vivo, in 4-day cycling rats as described [A. Corbin and C. W. Beattie, Endocr. Res. Commun., 2, 1-23 (1975)].

4-day-cycling rats = assay: In vivo antiovulatory activity; conditions: 10 µg per rat
Procedure: This activity of the peptides is determined in 4-day-cycling rats as described [A. Corbin and C. W. Beattie, Endocr. Res. Commun., 2, 1-23 (1975)].
as §1

[3] = test system: MCF-7 human breast cancer cell line; assay: Cytotoxicity test: inhibition of 3H-thymidine incorporation into DNA; assay type: cell-based
Procedure: Ability of peptides of Formula I to inhibit incorporation of [³H]thymidine into DNA of monolayer cultures the human mammary tumor cell line MCF-7 is assayed as described [V. K. Sondak et al., Cancer Research, 44, 1725-1728 (1984); F. Holzel et al., J. Cancer Res. Clin. Oncol. 109, 217-226 (1985); M. Albert et al., J. Cancer Res. Clin. Oncol. 109, 210-216 (1985)].
200,000 cells in 200 µl of […] + 2% CFBS were incubated with 1,5 or 10 µg cytotoxic analogs for 3 hours or 23 hours then 1 µCi ³H-thymidine added and incubated an additional 60 min. DNA extracted with 1 N perchloric acid and the radioactivity measured.

rat pituitary cell = conditions: LH-releasing activity compared to that produced by 3 nM LH-RH; peptide infused for 3 minutes
Procedure: Ability of compounds to influence LH release in vitro is assayed by using a superfused rat pituitary cell system [S. Vigh and A. V. Schally, Peptides, 5 Suppl.
LH-releasing effect of compounds is determined as follows: each peptide is perfused through the cells for 3 min (1 ml perfusate) at 20-100 pM. LH content of 1 ml fractions collected is determined by radioimmunoassay (RIA). Potency of peptides is compared to that of 3 nM LHRH perfused similarly.
The peptide was infused for 3 minutes at various concentration, and the amount of LH released was compared to that released by 3 nM LHRH.

[4] = Table 2, ¹²⁵I-[D-Trp]⁶ LHRH used as the labelled ligand
[5] = Table 1, ¹²⁵I-[D-Trp]⁶LHRH used as labelled ligand

Compound	Affinity Constant Ka1 [2, 4]	%Ovulation Blockade (4-day-cycling rats)	% Inhibition at 24 hrs ([3]; Dose 1 µg/ml)	% Inhibition at 24 hrs ([3]; Dose 10 µg/ml)	Affinity Constant Ka1 [2, 5]	further results
pGlu-His-Trp-Ser-Tyr-D-Lys[Ahx-A₂bu(SAL)₂(Cu)]-Leu-Arg-Pro-Gly-NH₂						inhibits the [³H]thymidine incorporation into DNA [1]: 87%
Ac-Nal(2)-D-Phe(4Cl)-D-Pal(3)-Ser-Arg-D-Lys[A₂pr(HMAQG)₂]-Leu-Arg-Pro-D-Ala-NH₂ [compound 4]	2.28 nM⁻¹	40%	15%	40** %		% Inhibition at 4 hrs ([3]; Dose 1 µg/ml): 31** %; % Inhibition at 4 hrs ([3]; Dose 10 µg/ml): 28** %
Ac-Nal(2)-D-Phe(4Cl)-D-Trp-Ser-Arg-D-Lys[A₂pr(HMAQG)₂]-Leu-Arg-Pro-D-Ala-NH₂ [compound 3]	7.05 nM⁻¹	0%	3%	11%		Affinity Constant Ka2 [2, 4]: 8.6 µM⁻¹
CC(C)C[C@H](NC(=O)[C@@H](CCCCNC(=O)CCCC(=O)OCc1ccc2c(c1)C(=O)c1ccccc1C2=O)NC(=O)[C@H](Cc1ccc(O)cc1)NC(=O)[C@H](CO)NC(=O)[C@H](Cc1c[nH]c2ccccc12)NC(=O)[C@H](Cc1c[nH]cn1)NC(=O)[C@@H]1CCC(=O)N1)C(=O)N[C@@H](CCCNC(=N)N)C(=O)N1CCC[C@H]1C(=O)NCC(N)=O [compound 1, pGlu-His-Trp-Ser-Tyr-D-Lys(HMAQG)-Leu-Arg-Pro-Gly-NH₂]						Relative Activity (rat pituitary cell): 35
pGlu-His-Trp-Ser-Tyr-D-Lys(MTX)-Leu-Arg-Pro-Gly-NH₂ [2B]					0.63 nM⁻¹	
pGlu-His-Trp-Ser-Tyr-D-Lys(MTX)-Leu-Arg-Pro-Gly-NH₂ [2A]					5.42 nM⁻¹	Affinity Constant Ka2 [2, 5]: 1.59 µM⁻¹
